Reference: ChEMBL document CHEMBL1201862, “PubChem BioAssay data set” (2004)
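Interpolation was linear, between the two tested concentrations surrounding the appropriate level; five concentrations were tested over 48 hours in 96-well plates. GI50 is the concentration that inhibits growth by half.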 The source made the active and inactive calls. Rule as the data show it: active = GI50 up to about 1.1 µM and inactive = higher.

Experiments:
Assay in all cases: growth of human tumour cells (NCI), 48 h
RPMI-8226 = test system: RPMI-8226
OVCAR-3 = test system: OVCAR-3
NCI-H23 = test system: NCI-H23
K562 = test system: K562
UACC-257 = test system: UACC-257
HL-60 = test system: HL-60
SW-620 = test system: SW-620
HCC 2998 = test system: HCC 2998
SF-539 = test system: SF-539
SF-295 = test system: SF-295
RXF 393 = test system: RXF 393
LOX IMVI = test system: LOX IMVI
HCT-15 = test system: HCT-15
SK-MEL-5 = test system: SK-MEL-5
CAKI-1 = test system: CAKI-1
A549 = test system: A549
NCI-H522 = test system: NCI-H522

SMILES | GI50 (RPMI-8226) | GI50 (OVCAR-3) | GI50 (NCI-H23) | GI50 (K562) | GI50 (UACC-257) | GI50 (HL-60) | GI50 (SW-620) | GI50 (HCC 2998) | GI50 (SF-539) | GI50 (SF-295) | GI50 (RXF 393) | GI50 (LOX IMVI) | GI50 (HCT-15) [µM] | GI50 (SK-MEL-5) | GI50 (CAKI-1) | GI50 (A549) | GI50 (NCI-H522)
CC(CCc1ccc2c(c1)c(N)c1ccc(N)cc1[n+]2[O-])CC(C)(C)C (configuration not stated) | 1.92 µM (inactive) | 1.73 µM (inactive) | 1.31 µM (inactive) | 0.621 µM (active) | 1.99 µM (inactive) | 1.3 µM (inactive) | 1.68 µM (inactive) | 1.55 µM (inactive) | 1.93 µM (inactive) | 1.76 µM (inactive) | 2 µM (inactive) | 1.52 µM (inactive) | 4.26 | 1.65 µM (inactive) | 1.47 µM (inactive) | 1.63 µM (inactive) | 
c1ccc2c(c1)[nH]c1c[nH]c3c4cccnc4nc-3c12 | 25.3 µM (inactive) | 17.1 µM (inactive) | 25.5 µM (inactive) | 21.5 µM (inactive) | 23.9 µM (inactive) | 17.5 µM (inactive) | 18.1 µM (inactive) | 19 µM (inactive) | 21.4 µM (inactive) | 23.4 µM (inactive) | 18.7 µM (inactive) | 19.5 µM (inactive) | 15.3 | 19.4 µM (inactive) | 14.5 µM (inactive) | 20 µM (inactive) | 
NC(=S)N/N=C1\C(=O)N(CCc2ccccc2)C(=O)C1C(=O)NCCc1ccccc1 (configuration not stated) | > 100 µM (inactive) | > 100 µM (inactive) | > 100 µM (inactive) | > 100 µM (inactive) | > 100 µM (inactive) |  | > 100 µM (inactive) | > 100 µM (inactive) | > 100 µM (inactive) | > 100 µM (inactive) | > 100 µM (inactive) | > 100 µM (inactive) | > 100 | > 100 µM (inactive) | > 100 µM (inactive) |  | > 100 µM (inactive)
CCOC(=O)/C(O)=C(/c1n[nH]c(=O)c2ccccc12)[N+](=O)[O-] | > 100 µM (inactive) | > 100 µM (inactive) | > 100 µM (inactive) | > 100 µM (inactive) | > 100 µM (inactive) | > 100 µM (inactive) | > 100 µM (inactive) | > 100 µM (inactive) | > 100 µM (inactive) | > 100 µM (inactive) | > 100 µM (inactive) | > 100 µM (inactive) | > 100 | > 100 µM (inactive) |  | > 100 µM (inactive) | > 100 µM (inactive)
Cc1ccc(/C=C2\CCCCC2=O)cc1 |  | > 100 µM (inactive) | > 100 µM (inactive) | 25.7 µM (inactive) |  | 19 µM (inactive) | > 100 µM (inactive) |  | > 100 µM (inactive) | > 100 µM (inactive) |  | 31.5 µM (inactive) | > 100 | 91.6 µM (inactive) | 42.7 µM (inactive) | > 100 µM (inactive) | 
OCCNCCOc1ccc(/C(=C(/Cl)c2ccccc2)c2ccccc2)cc1 | 4.42 µM (inactive) | 12.1 µM (inactive) | 14.7 µM (inactive) | 2.85 µM (inactive) | 2.21 µM (inactive) | 0.729 µM (active) | 4.44 µM (inactive) |  | 13.6 µM (inactive) | 15.2 µM (inactive) | 0.637 µM (active) | 3.49 µM (inactive) | 5.58 | 6.25 µM (inactive) | 12.4 µM (inactive) | 0.34 µM (active) | 14 µM (inactive)
c1ccc(C(c2ccccc2)c2ccccn2)cc1 | 66.1 µM (inactive) | > 100 µM (inactive) | > 100 µM (inactive) | > 100 µM (inactive) | > 100 µM (inactive) |  | > 100 µM (inactive) | > 100 µM (inactive) | > 100 µM (inactive) | > 100 µM (inactive) |  | > 100 µM (inactive) | > 100 | > 100 µM (inactive) | > 100 µM (inactive) | > 100 µM (inactive) | 
O=c1c2ccccc2c2nc3ccccc3nc2n1C1CCCCC1 | > 100 µM (inactive) | > 100 µM (inactive) | > 100 µM (inactive) | > 100 µM (inactive) | > 100 µM (inactive) |  | > 100 µM (inactive) | > 100 µM (inactive) | > 100 µM (inactive) | 95.3 µM (inactive) | > 100 µM (inactive) |  | > 100 | > 100 µM (inactive) | > 100 µM (inactive) | > 100 µM (inactive) | > 100 µM (inactive)
CCCOP1(=O)C=C(C)C(Cl)=C(C)C1 (configuration not stated) | 12 µM (inactive) | 25.2 µM (inactive) | 16.9 µM (inactive) | 24.7 µM (inactive) | 17.7 µM (inactive) | 22.3 µM (inactive) | 17.1 µM (inactive) | 54.7 µM (inactive) | 25.7 µM (inactive) | 25.2 µM (inactive) | 18 µM (inactive) | 13.3 µM (inactive) | 20 | 18.7 µM (inactive) |  | 21.6 µM (inactive) | 15 µM (inactive)
CCOC(=O)CN(c1ccccc1)c1nc(=[N+](C)C)ss1 | 1.19 µM (inactive) | 0.284 µM (active) |  | 6.78 µM (inactive) | 24.3 µM (inactive) | 13.1 µM (inactive) | 53.1 µM (inactive) | 41.1 µM (inactive) | 40.1 µM (inactive) |  | 10.5 µM (inactive) |  | 16.4 |  | 50.9 µM (inactive) | 30.4 µM (inactive) | 0.24 µM (active)
CC1(C)c2ccccc2N2C(c3ccccc3)=NOC21C (configuration not stated) | > 100 µM (inactive) | > 100 µM (inactive) | > 100 µM (inactive) | > 100 µM (inactive) | > 100 µM (inactive) | > 100 µM (inactive) | > 100 µM (inactive) |  | > 100 µM (inactive) | > 100 µM (inactive) | > 100 µM (inactive) | > 100 µM (inactive) | > 100 | > 100 µM (inactive) | > 100 µM (inactive) | > 100 µM (inactive) | > 100 µM (inactive)
COC(=O)C(=O)C(C(=O)C(=O)Nc1cc([N+](=O)[O-])ccc1C#N)c1nc2ccccc2nc1O (configuration not stated) |  | > 100 µM (inactive) | > 100 µM (inactive) |  | > 100 µM (inactive) | > 100 µM (inactive) | > 100 µM (inactive) | > 100 µM (inactive) | > 100 µM (inactive) | > 100 µM (inactive) | > 100 µM (inactive) | > 100 µM (inactive) | > 100 | > 100 µM (inactive) | > 100 µM (inactive) | > 100 µM (inactive) | > 100 µM (inactive)
COc1cc(Cl)c2c3c(c(C(=O)c4ccccc4)oc13)CCC2 | > 100 µM (inactive) | > 100 µM (inactive) | > 100 µM (inactive) | 41.7 µM (inactive) | > 100 µM (inactive) | 53.6 µM (inactive) | > 100 µM (inactive) | > 100 µM (inactive) | > 100 µM (inactive) | > 100 µM (inactive) | 62.5 µM (inactive) | > 100 µM (inactive) | > 100 | > 100 µM (inactive) | > 100 µM (inactive) | > 100 µM (inactive) | 
Cc1c2n(c(=O)[nH]c1=O)C1OC(CO)C(N=[N+]=[N-])C1O2 (configuration not stated) | > 100 µM (inactive) | > 100 µM (inactive) | > 100 µM (inactive) | 92.5 µM (inactive) | > 100 µM (inactive) | > 100 µM (inactive) | > 100 µM (inactive) |  | > 100 µM (inactive) | > 100 µM (inactive) | 28 µM (inactive) | > 100 µM (inactive) | > 100 | > 100 µM (inactive) | > 100 µM (inactive) | > 100 µM (inactive) | 90.6 µM (inactive)
